Test results: patent publication US20160326165A1, “ALKOXYCARBONYL HEMIACETAL-TYPE ESTER PRODRUG OF PYRIDONE CARBOXYLIC ACID ANTIBACTERIAL DRUG” (KINKI UNIVERSITY, priority 2013, published 2016)
Values after ≈ are worked out from the molar mass of the structure shown.

Legend:
[1] = test system: Escherichia coli NIH JC2; experiment: MIC against Escherichia coli NIH JC2; type: cell-based; details: NIHJC2
Source text: (§1) The MIC activity unit in the table is μg/mL.

[2] = test system: Pseudomonas-aeruginosa ATCC 27853; experiment: MIC (minimum inhibitory concentration) against Pseudomonas-aeruginosa ATCC 27853; type: cell-based
Source text: as §1

[3] = Rat intestinal everted sac method: intestinal absorption and hydrolysis to LVFX, alone or with AlCl3; type: in vitro ADME; details: for LVFX concentration generated within the small intestine lumen from the ester alone versus LVFX alone / influence of simultaneous administration of AlCl3 on LVFX generated: incubation 60 minutes; for hydrolysis into LVFX: incubation for 60 minutes, small intestine; for drug substance LVFX as a hydrolysis product in the everted intestinal tract: ester
Description: 1. Glucose 200 mg was dissolved in 100 ml of 20 mM HEPES buffer isotonic sodium chloride solution, and pH is regulated at 7.4 with 5N- or 1N-sodium hydroxide by measuring pH (If pH rises, pH is modulated with 1N-hydrochloric acid.).
1. Similarly in the case of independent administration, glucose 200 mg is dissolved in 100 ml of 20 mM HEPES buffer isotonic sodium chloride solution, and pH is regulated at 7.4 with 5N- or 1N-sodium hydroxide by measuring pH (If pH rises, pH is modulated with 1N-hydrochloric acid.).
2. AlCl3 8.0 mg is dissolved (600 μM).
1. A SD type male rat of 8-week old after the birth is purchased and undergoes quarantine habituation for two days. After fasting for 24 hours, a pentobarbital sodium (50 mg/ml) is injected intraperitoneally in the amount (ml) of: rat weight (g)×0.05/50 (that is, weight (g)×0.001).
2. After the rat sleeps completely, it is incised in the abdomen so as to be observed from the stomach till the bladder, and the intestinal tract is removed from the end of the duodenum to the front 5 cm of the cecum.
3. The intestinal tract is cut off every 10 cm carefully, and all portions are washed with physiological saline (both circumference and inside of intestinal).
4. The intestinal tract is made reversed from the stomach side using a stainless steel tube.
5. The cecum side of the reversed intestinal tract is tied with sutures to make bag-shaped.
6. One (1) ml of the HEPES buffer isotonic sodium chloride solution adjusted is put in from the stomach side of the intestinal tract, and the intestinal tract is tied with a suture.
7. The tied intestinal tract is put in the HEPES buffer isotonic sodium chloride solution cooled upon ice, and is preserved.
2. One (1) ml of the drug solution is taken, and it is diluted with 9 ml of the HEPES buffer isotonic sodium chloride solution 10 times (2 mM).
3. A portion (5 ml) of the solution is further diluted with 95 ml of the HEPES buffer isotonic sodium chloride solution to 20 times (100 μM).
1. Thirty (30) ml of the diluted drug solution is taken to a 50-ml Erlenmeyer flask, and the intestinal tract containing a HEPES buffer isotonic sodium chloride solution is put in.
2. […]
3. The intestinal tract is taken out from the drug solution, and, after flushing and wiping off the drug solution attached to the surroundings of the intestinal tract with the physiological saline, all liquid in the intestinal tract is taken out into the Eppendorf tube.
4. The liquid is centrifuged for 5 minutes at 12,000 rpm.
5. 250 μL of a supernatant liquid is taken as a sample.
The method is the same as the HPLC measurement conditions mentioned above in-vivo experiment.

[4] = test system: Enterobacter ATCC 23355; experiment: MIC against Enterobacter ATCC 23355; type: cell-based; details: ATCC23355
Source text: as §1

[5] = test system: Escherichia coli ATCC 25922; experiment: MIC against Escherichia coli ATCC 25922; type: cell-based; details: ATCC25922
Source text: as §1

[6] = Blood concentration and AUC of LVFX after oral administration to rats, alone or with a metal-containing preparation; details: for blood concentration of LVFX after independent administration of the ester versus independent administration of LVFX / blood concentration of LVFX under concomitant use of polyvalent metal-containing antacid: 0-240 minutes
Description: A cannulation inner tube (Fuji Systems Corporation Ltd., Tokyo) having an internal diameter of 0.5 mm and an outside diameter of 1.0 mm which is used for blood collecting was inserted in the jugular vein of rats on the preceding day before the administration experiment, and the rats were made to abstain from food for 20 hours in an environment where only water can be taken in the animal room.
The polyvalent metal-containing preparation Al(OH)3 was administered in a dose of 30 mg/kg subject.
After administration of the drug, a blood sample was collected through a jugular vein cannulation inner tube in an amount of 200 μL each along the time elapsed (after 0, 15, 30, 45, 60, 90, 120, 180, and 240 minutes) in a 1-mL syringe treated with heparin, the blood was centrifuged for 5 minutes at 12,000 rpm and 4 deg C immediately, and 50 μL of a supernatant was taken to make plasma.
The following procedures were carried out successively: addition of 100 μL of methanol solution containing 10 μmol/L of CPFX as an internal standard substance to 50 μL of plasma, then stirring; centrifuging for 5 minutes at 6,200 rpm; sampling 100 μL of the supernatant with a syringe; filtering the sample solution using Millex (registered trademark)-HV (0.45 micrometer, MILLIPORE, Billerica, Mass., USA). […] The HPLC measurement conditions were as follows; the column used: TSK-GEL ODS-80 Ts (250×4.6 mm, TOSOH Corp., Tokyo), the mobile phase used: 20-mm sodium-phosphate buffer solution (pH 3.0)/acetonitrile=79:21 (v/v). The measurement was carried out using Shimazu SPD-20A Spectrometer detector (Shimadzu, Kyoto) with 280 nm detection wavelength, and flow rate was 1.0 mL/min. The retention times obtained by these conditions were 6.9 minutes for ENX, and 7.2 minutes for CPFX.
The differences of AUCs between 4 groups were computed by performing the multiple comparison by Dunnett's method, and the range of p<0.05 was understood as having a statistical significance.

[7] = test system: Pseudomonas-aeruginosa (ATCC27853), Escherichia coli (ATCC25922 and NIH JC2), and Enterobacter (ZTCC23355); experiment: Comparison of antibacterial activities of LVFX and LVFX-EHE over all tested strains; type: cell-based; details: all four strains of Table 11

Structure (SMILES)	MIC [1] [µg/mL]	MIC [2] [µg/mL]	absorption amount with AlCl3 as percent of LVFX administration alone ([3]; LVFX and AlCl3 concomitantly)	MIC [4] [µg/mL]	MIC [5] [µg/mL]	AUC of LVFX in blood on co-administration with the metal-containing preparation versus LVFX independent administration [6]	blood concentration of LVFX after independent administration of the ester versus independent administration of LVFX [6]	blood concentration of LVFX under concomitant use of polyvalent metal-containing antacid [6]	LVFX concentration generated within the small intestine lumen from the ester alone versus LVFX alone [3]	influence of simultaneous administration of AlCl3 on LVFX generated [3]	hydrolysis into LVFX [3]	MIC values considered from clinical break points [7]	antibacterial activity as compared to that of LVFX ([7]; ratio to LVFX)	peak of LVFX in blood derived from the ester ([6]; ester administered alone)	peak of LVFX in blood derived from the ester ([6]; ester co-administered with Al(OH)3 30 mg/kg)	drug substance LVFX as a hydrolysis product in the everted intestinal tract ([3]; concomitant administration with aluminum chloride)	drug substance LVFX as a hydrolysis product in the everted intestinal tract ([3]; independent administration alone)
C[C@H]1COc2c(N3CCN(C)CC3)c(F)cc3c(=O)c(C(=O)O)cn1c23 [LVFX, (3S)-9-fluoro-3-methyl-10-(4-methyl-1-piperazinyl)-7-oxo-2,3-dihydro-7H-pyrid [1,2,3-de] [1,4] benzoxazine-6-carboxylic acid, reference compound]	≤ 0.065	0.5 (≈ 1.38 µM)	about 54%	≤ 0.065	≤ 0.065	–	–	–	–	–	–	–	–	–	–	–	–
CCOC(=O)OC(C)OC(=O)c1cn2c3c(c(N4CCN(C)CC4)c(F)cc3c1=O)OC[C@@H]2C (stereo partly drawn) [LVFX-EHE, Levofloxacin ethoxycarbonyl-1-ethyl hemiacetal-type ester]	0.5 (≈ 1.05 µM)	8 (≈ 16.8 µM)	–	2 (≈ 4.19 µM)	0.5 (≈ 1.05 µM)	no significant difference	Significant differences were not observed	not influenced	no significant difference	no influence	completely hydrolyzed	non-sensitive to any bacterial strains	1/10	–	–	–	–
CC(C)OC(=O)OC(C)OC(=O)c1cn2c3c(c(N4CCN(C)CC4)c(F)cc3c1=O)OC[C@@H]2C (mixture of isomers) [LVFX-iPrHE, Levofloxacin isopropoxycarbonyl 1-ethyl hemiacetal-type ester]	–	–	–	–	–	no significant difference	A significant difference was not found	not influenced	no significant difference	no influence	completely hydrolyzed	–	–	–	–	–	–
COC(=O)c1cn2c3c(c(N4CCN(C)CC4)c(F)cc3c1=O)OC[C@@H]2C [LVFX-M, (S)-Methyl-9-fluoro-3-methyl-10-(4-methylpiperazine-1-yl)-7-oxo-3,7-dihydro-2H-[1,4] oxazolino [2,3,4-ij] quinolin-6-carboxylate, reference compound]	–	–	–	–	–	–	–	–	–	–	–	–	–	no peak was detected	no peak was detected	not detected	not detected
